“And” between values parts separate entries of the source, which are not always exact repeats. Equal entries are not always repeated.
Assay: Pharmacokinetics after single oral administration to beagle dogs
Assay type: in vivo
Details: for plasma concentration of Compound I-17/I-19: single PO 10 mg/kg; for plasma concentration of Compound I-17/I-19 (as titled): single PO 80 mg/kg (as titled)
Protocol: The concentrations of the analytes in the plasma were quantified by liquid chromatography tandem mass spectrometry (LC-MS/MS).
The bioanalytical assay provided a lower limit of quantification (LLOQ) of 1.0 ng/mL and an upper limit of quantification (ULOQ) of 3000 ng/mL for all the analytes. The data of plasma concentration vs. time were analyzed using Phoenix WinNonlin 8.3 to determine the PK properties of the analytes.
The test articles were administered orally by gavage. The nominal dose volume was 5 mL/kg for both analogs.
The observation included appearance, behavior, morbidity and mortality.
Approximately 0.5 mL blood was collected at each scheduled time point from the peripheral veins.
The plasma samples were placed in microcentrifuge tubes and stored at −70+10° C. until analysis.

[1] = oral 10 mg/kg, female dogs, 10 mg/kg

For `CC(C)/C=C/COC1(c2ccc(Cl)cc2)c2ccccc2C2=NCCN21` (stereo not shown) [Compound I-17], the “Tmax of the analog (Compound I-17/I-19)” value (oral 10 mg/kg, female dogs) was 1.5 hour, the “AUC0-last of the analog (Compound I-17/I-19)” value [1] was 826 ng·h/mL and 836 ng·h/mL and the “MRT0-last of the analog (Compound I-17/I-19)” value [1] was 4.01 hours and 2.47 hours. For the same molecule, the “Cmax of the analog (Compound I-17/I-19)” value (oral 10 mg/kg, male dogs) was 151 ng/mL, the “T1/2 of the analog (Compound I-17/I-19)” value (oral 10 mg/kg, male dogs) was 4.39 hours and the “Tmax of the analog (Compound I-17/I-19)” value (oral 10 mg/kg, male dogs) was 1 hour. The “MRT0-last of the analog (Compound I-17/I-19)” value (oral 10 mg/kg, male dogs, 10 mg/kg) was 2.74 hours and 2.30 hours, the “plasma concentration of Compound I-17/I-19” value (0.500 h, female individual, 10 mg/kg) was 128 ng/mL and 106 ng/mL and the “plasma concentration of Compound I-17/I-19” value (0.500 h, female mean) was 117 ng/mL. The “plasma concentration of Compound I-17/I-19” value (0.500 h, male individual, 10 mg/kg) was 73.5 ng/mL and 176 ng/mL, the “plasma concentration of Compound I-17/I-19” value (0.500 h, male mean) was 125 ng/mL and the “plasma concentration of Compound I-17/I-19” value ([…] h, female individual, 10 mg/kg) was 293 ng/mL and 236 ng/mL. For the same molecule, the “plasma concentration of Compound I-17/I-19” value ([…] h, female mean) was 265 ng/mL, the “plasma concentration of Compound I-17/I-19” value ([…] h, male individual, 10 mg/kg) was 89.0 ng/mL and 212 ng/mL and the “plasma concentration of Compound I-17/I-19” value ([…] h, male mean) was 151 ng/mL. For the same molecule, the “plasma concentration of Compound I-17/I-19” value (2.00 h, female individual, 10 mg/kg) was 164 ng/mL and 252 ng/mL, the “plasma concentration of Compound I-17/I-19” value (2.00 h, female mean) was 208 ng/mL and the “plasma concentration of Compound I-17/I-19” value (2.00 h, male individual, 10 mg/kg) was 51.0 ng/mL and 101 ng/mL. The “plasma concentration of Compound I-17/I-19” value (2.00 h, male mean) was 75.8 ng/mL, the “plasma concentration of Compound I-17/I-19” value (4.00 h, female individual, 10 mg/kg) was 43.0 ng/mL and 77.4 ng/mL and the “plasma concentration of Compound I-17/I-19” value (4.00 h, female mean) was 60.2 ng/mL. For the same molecule, the “plasma concentration of Compound I-17/I-19” value (4.00 h, male individual, 10 mg/kg) was 11.2 ng/mL and 26.5 ng/mL, the “plasma concentration of Compound I-17/I-19” value (4.00 h, male mean) was 18.9 ng/mL and the “plasma concentration of Compound I-17/I-19” value (6.00 h, female individual, 10 mg/kg) was 20.8 ng/mL and 28.2 ng/mL. The “plasma concentration of Compound I-17/I-19” value (6.00 h, female mean) was 24.5 ng/mL, the “plasma concentration of Compound I-17/I-19” value (6.00 h, male individual, 10 mg/kg) was 6.77 ng/mL and 10.2 ng/mL and the “plasma concentration of Compound I-17/I-19” value (6.00 h, male mean) was 8.47 ng/mL. For the same molecule, the “plasma concentration of Compound I-17/I-19” value (8.00 h, female individual, 10 mg/kg) was 13.6 ng/mL and 15.0 ng/mL, the “plasma concentration of Compound I-17/I-19” value (8.00 h, female mean) was 14.3 ng/mL and the “plasma concentration of Compound I-17/I-19” value (8.00 h, male individual, 10 mg/kg) was 4.57 ng/mL and 8.39 ng/mL. For the same molecule, the “plasma concentration of Compound I-17/I-19” value (8.00 h, male mean) was 6.48 ng/mL, the “plasma concentration of Compound I-17/I-19” value (24.0 h, female individual, 10 mg/kg) was 2.29 ng/mL and 3.32 ng/mL and the “plasma concentration of Compound I-17/I-19” value (24.0 h, female mean) was 2.81 ng/mL. For the same molecule, the “plasma concentration of Compound I-17/I-19” value (24.0 h, male individual) was 1.16 ng/mL, the “plasma concentration of Compound I-17/I-19” value (24.0 h, male individual, 10 mg/kg) was “BQL” and the “plasma concentration of Compound I-17/I-19 (as titled)” value (from here on “plasma concentration … (as titled)”) (0.500 h, female individual) was 5.44 ng/mL. The “plasma concentration … (as titled)” value (0.500 h, female individual, 80 mg/kg) was “BQL”, the “plasma concentration … (as titled)” value (0.500 h, male individual, 80 mg/kg) was 7.45 ng/mL and 13.8 ng/mL and the “plasma concentration … (as titled)” value (0.500 h, male mean) was 10.6 ng/mL. The “plasma concentration … (as titled)” value (2.00 h, female individual, 80 mg/kg) was 33.0 ng/mL and 26.4 ng/mL, the “plasma concentration … (as titled)” value (2.00 h, female mean) was 29.7 ng/mL and the “plasma concentration … (as titled)” value (2.00 h, male individual, 80 mg/kg) was 25.9 ng/mL and 31.6 ng/mL. The “plasma concentration … (as titled)” value (2.00 h, male mean) was 28.8 ng/mL, the “plasma concentration … (as titled)” value (4.00 h, female individual, 80 mg/kg) was 35.5 ng/mL and 25.4 ng/mL and the “plasma concentration … (as titled)” value (4.00 h, female mean) was 30.5 ng/mL. For the same molecule, the “plasma concentration … (as titled)” value (4.00 h, male individual, 80 mg/kg) was 25.6 ng/mL and 29.0 ng/mL, the “plasma concentration … (as titled)” value (4.00 h, male mean) was 27.3 ng/mL and the “plasma concentration … (as titled)” value (6.00 h, female individual, 80 mg/kg) was 22.9 ng/mL and 18.1 ng/mL. For the same molecule, the “plasma concentration … (as titled)” value (6.00 h, female mean) was 20.5 ng/mL, the “plasma concentration … (as titled)” value (6.00 h, male individual, 80 mg/kg) was 14.2 ng/mL and 16.7 ng/mL and the “plasma concentration … (as titled)” value (6.00 h, male mean) was 15.4 ng/mL. For the same molecule, the “plasma concentration … (as titled)” value (8.00 h, female individual, 80 mg/kg) was 21.8 ng/mL and 14.4 ng/mL, the “plasma concentration … (as titled)” value (8.00 h, female mean) was 18.1 ng/mL and the “plasma concentration … (as titled)” value (8.00 h, male individual, 80 mg/kg) was 14.9 ng/mL and 13.7 ng/mL. The “plasma concentration … (as titled)” value (8.00 h, male mean) was 14.3 ng/mL, the “plasma concentration … (as titled)” value (24.0 h, female individual, 80 mg/kg) was 4.17 ng/mL and 3.23 ng/mL and the “plasma concentration … (as titled)” value (24.0 h, female mean) was 3.70 ng/mL. For the same molecule, the “plasma concentration … (as titled)” value (24.0 h, male individual, 80 mg/kg) was 2.20 ng/mL and 2.28 ng/mL, the “plasma concentration … (as titled)” value (24.0 h, male mean) was 2.24 ng/mL and the “plasma concentration … (as titled)” value ([…] h, female mean) was 15.9 ng/mL. For the same molecule, the “plasma concentration … (as titled)” value ([…] h, male mean) was 22.2 ng/mL.

From US20250108038A1 (priority 2023, published 2025)
